Patent publication US9993001B2, “Herbicidal composition” (ISHIHARA SANGYO KAISHA, LTD., priority 2014, dated 2018)

Tests used:
Assay type in all cases: in vivo
[1] = system: black nightshade (Solanum nigrum L.); assay: Test Example 14: pot, soil treatment, metobromuron + pyroxasulfone; conditions: soil treatment, pot, 12th day after treatment, read-out: Growth inhibition rate of black nightshade (%) Measured value
Text: (§1) When the herbicidal activity in a case where two active ingredients are combined, is larger than the simple sum of the respective herbicidal activities of the two active ingredients (the expected activity), it is called a synergistic effect. The activity expected by the combination of two active ingredients can be calculated as follows (Colby S. R., “Weed”, vol. 15, p. 20-22, 1967). E=α+β−(α×β[…]) where α: growth inhibition rate when treated with x (g/ha) of herbicide X, • β: growth inhibition rate when treated with y (g/ha) of herbicide Y, • E: growth inhibition rate expected when treated with x (g/ha) of herbicide X and y (g/ha) of herbicide Y.
(§2) On the 19th day after treatment, the state of growth of barnyardgrass was visually observed and evaluated in accordance with the following standards. The growth inhibition rate (%) [measured value] and the growth inhibition rate (%) [calculated value] calculated by the Colby's method, are shown in Table 2.
(§3) Growth inhibition rate (%)=inhibition rate) (%) of 0 (equivalent to the non-treated area) to 100 (complete kill)
(§4) Soil was put into a 1/300,000 ha pot, and seeds of black nightshade (Solanum nigrum L.) were sown. Prior to germination of black nightshade, predetermined amounts of SC containing metobromuron as active ingredient (same as in Test Example 1) and WG containing pyroxasulfone as active ingredient (same as in Test Example 13) were diluted with water corresponding to 1,000 L per hectare and applied for soil treatment.
On the 12th day after treatment, the state of growth of black nightshade was visually observed and evaluated in the same manner as in Test Example 1.

[2] = system: velvetleaf (Abutilon theophrasti MEDIC.); assay: Test Example 13: pot, soil treatment, metobromuron + pyroxasulfone; conditions: soil treatment, pot, 12th day after treatment, read-out: Growth inhibition rate of velvetleaf (%) Measured value
Text: as §1, §2, §3
as §4, with “velvetleaf (Abutilon theophrasti MEDIC.)” for “black nightshade (Solanum nigrum L.)”, “velvetleaf,” for “black nightshade,”, “(trade name: Sakura 850 WG, manufactured by Bayer CropScience)” for “(same as in Test Example 13)”
On the 12th day after treatment, the state of growth of velvetleaf was visually observed and evaluated in the same manner as in Test Example 1.

[3] = system: black nightshade (Solanum nigrum L.); assay: Test Example 26: pot, soil treatment, metobromuron + prosulfocarb; conditions: soil treatment, pot, 21st day after treatment, read-out: Growth inhibition rate of black nightshade (%) Measured value
Text: as §1, §2, §3
as §4, with “On the day after seeding,” for “Prior to germination of black nightshade,”, “EC” for “WG”, “prosulfocarb” for “pyroxasulfone”, “(trade name: BOXER NYUZAI, manufactured by Syngenta)” for “(same as in Test Example 13)”
(§5) On the 21st day after treatment, the state of growth of black nightshade was visually observed and evaluated in the same manner as in Test Example 1.

[4] = system: black nightshade (Solanum nigrum L.); assay: Test Example 27: pot, soil treatment, metobromuron + flufenacet; conditions: soil treatment, pot, 21st day after treatment, read-out: Growth inhibition rate of black nightshade (%) Measured value
Text: as §1, §2, §3
as §4, with “On the day after seeding,” for “Prior to germination of black nightshade,”, “EC” for “WG”, “prosulfocarb” for “pyroxasulfone”, “(trade name: BOXER NYUZAI, manufactured by Syngenta)” for “(same as in Test Example 13)”
as §5
The test was carried out in the same manner as in Test Example 26 except that EC containing prosulfocarb as active ingredient was changed to SC containing flufenacet as active ingredient (trade name: Cadou, manufactured by Bayer CropScience), to obtain the results as shown in Table 28.

[5] = system: large crabgrass (Digitaria sanquinalis L.); assay: Test Example 29: pot, soil treatment, metobromuron + indanofan; conditions: soil treatment, pot, 20th day after treatment, read-out: Growth inhibition rate of large crabgrass (%) Measured value
Text: as §1, §2, §3
Soil was put into a 1/300,000 ha pot, and seeds of large crabgrass (Digitaria sanquinalis L.) were sown. On the day after seeding, predetermined amounts of SC containing metobromuron as active ingredient (same as in Test Example 1) and WP containing indanofan as active ingredient were diluted with water corresponding to 1,000 L per hectare and applied for soil treatment.
On the 20th day after treatment, the state of growth of large crabgrass was visually observed and evaluated in the same manner as in Test Example 1.

[6] = system: barnyardgrass (Echinochloa crus-qalli L.); assay: Test Example 21: pot, soil treatment, metobromuron + prometryn; conditions: soil treatment, pot, 21st day after treatment, read-out: Growth inhibition rate of barnyardgrass (%) Measured value
Text: as §1, §2, §3
(§6) Soil was put into a 1/300,000 ha pot, and seeds of barnyardgrass (Echinochloa crus-qalli L.) were sown. On the day after seeding, predetermined amounts of SC containing metobromuron as active ingredient (same as in Test Example 1) and WP containing prometryn as active ingredient (trade name: Gesagard 50, manufactured by Nippon Kayaku Co., Ltd.) were diluted with water corresponding to 1,000 L per hectare and applied for soil treatment.
(§7) On the 21st day after treatment, the state of growth of barnyardgrass was visually observed and evaluated in the same manner as in Test Example 1.

[7] = system: large crabgrass (Diqitaria sanquinalis L.); assay: Test Example 22: pot, soil treatment, metobromuron + prometryn; conditions: Digitaria sanguinalis, soil treatment, pot, 21st day after treatment, read-out: Growth inhibition rate of large crabgrass (%) Measured value
Text: as §1, §2, §3, §6, §7
The test was carried out in the same manner as in Test Example 21 except that barnyardgrass (Echinochloa crus-qalli L.) was changed to large crabgrass (Diqitaria sanquinalis L.), to obtain the results as shown in Table 23.

[8] = system: common lambsquarters (Chenopodium album L.); assay: Test Example 30: pot, soil treatment, metobromuron + thiobencarb; conditions: soil treatment, pot, 20th day after treatment, read-out: Growth inhibition rate of common lambsquarters (%) Measured value
Text: as §1, §2, §3
as §6, with “common lambsquarters (Chenopodium album” for “barnyardgrass (Echinochloa crus-qalli”, “EC” for “WP”, “thiobencarb” for “prometryn”, “Saturn NYUZAI,” for “Gesagard 50,”, “KUMIAI CHEMICAL INDUSTRY” for “Nippon Kayaku”
(§8) On the 20th day after treatment, the state of growth of common lambsquarters was visually observed and evaluated in the same manner as in Test Example 1.

[9] = system: black nightshade (Solanum nigrum L.); assay: Test Example 31: pot, soil treatment, metobromuron + thiobencarb; conditions: soil treatment, pot, 20th day after treatment, read-out: Growth inhibition rate of black nightshade (%) Measured value
Text: as §1, §2, §3
as §6, with “common lambsquarters (Chenopodium album” for “barnyardgrass (Echinochloa crus-qalli”, “EC” for “WP”, “thiobencarb” for “prometryn”, “Saturn NYUZAI,” for “Gesagard 50,”, “KUMIAI CHEMICAL INDUSTRY” for “Nippon Kayaku”
as §8
The test was carried out in the same manner as in Test Example 30 except that common lambsquarters (Chenopodium album L.) was changed to black nightshade (Solanum nigrum L.), to obtain the results as shown in Table 32.

With `Cn1nc(C(F)(F)F)c(CS(=O)(=O)C2=NOC(C)(C)C2)c1OC(F)F` [Pyroxasulfone, 3-[5-(difluoromethoxy)-1-methyl-3-(trifluoromethyl)pyrazol-4-ylmethylsulfonyl]-4,5-dihydro-5,5-dimethyl-1,2-oxazole] as the molecule, how does the inhibition at 25 g/ha ([1]; 25 g/ha) read?
The inhibition at 25 g/ha was 50%.

And the inhibition at 33 g/ha ([1]; 33 g/ha)?
The inhibition at 33 g/ha was 64%.

What about the inhibition at 50 g/ha ([1]; 50 g/ha) of the same molecule?
Its inhibition at 50 g/ha is 73%.

What about the inhibition at 25 g/ha ([2]; 25 g/ha) of the same molecule?
The inhibition at 25 g/ha was 25%.

And the inhibition at 33 g/ha ([2]; 33 g/ha)?
Its inhibition at 33 g/ha is 28%.

What about the inhibition at 50 g/ha ([2]; 50 g/ha) of the same molecule?
Its inhibition at 50 g/ha is 38%.

Which inhibition at 653.4 g/ha ([3]; 653.4 g/ha) does the source give for `CCCN(CCC)C(=O)SCc1ccccc1` [Prosulfocarb, S-benzyl dipropyl(thiocarbamate)] here?
Its inhibition at 653.4 g/ha is 50%.

What about the inhibition at 980 g/ha ([3]; 980 g/ha) of the same molecule?
The inhibition at 980 g/ha was 50%.

And the inhibition at 1470 g/ha ([3]; 1470 g/ha)?
Its inhibition at 1470 g/ha is 50%.

What does the source list for `CC(C)N(C(=O)COc1nnc(C(F)(F)F)s1)c1ccc(F)cc1` [Flufenacet, 4′-fluoro-N-isopropyl-2-[5-(trifluoromethyl)-1,3,4-thiadiazol-2-yloxy] acetanilide]?
inhibition at 83.35 g/ha ([4]; 83.35 g/ha): 30%; inhibition at 125 g/ha ([4]; 125 g/ha): 25%; inhibition at 187.5 g/ha ([4]; 187.5 g/ha): 40%

How did the inhibition at 25 g/ha ([5]; 25 g/ha) turn out when `CCC1(CC2(c3cccc(Cl)c3)CO2)C(=O)c2ccccc2C1=O` (racemic) [Indanofan, (RS)-2-[2-(3-chlorophenyl)-2,3-epoxypropyl]-2-ethyl indane-1,3-dione] was run?
Its inhibition at 25 g/ha is 25%.

And the inhibition at 37.5 g/ha ([5]; 37.5 g/ha)?
Its inhibition at 37.5 g/ha is 25%.

And the inhibition at 56.3 g/ha ([5]; 56.3 g/ha)?
Its inhibition at 56.3 g/ha is 28%.

Which inhibition at 300 g/ha ([6]; 300 g/ha) does the source give for `CSc1nc(NC(C)C)nc(NC(C)C)n1` [Prometryn, N^2,N^4-diisopropyl-6-methylthio-1,3,5-triazine-2,4-diamine] here?
Its inhibition at 300 g/ha is 15%.

What about the inhibition at 400 g/ha ([6]; 400 g/ha) of the same molecule?
Its inhibition at 400 g/ha is 38%.

And the inhibition at 300 g/ha ([7]; 300 g/ha)?
The inhibition at 300 g/ha was 62%.

And the inhibition at 400 g/ha ([7]; 400 g/ha)?
Its inhibition at 400 g/ha is 76%.

Which inhibition at 296.3 g/ha ([8]; 296.3 g/ha) does the source give for `CCN(CC)C(=O)SCc1ccc(Cl)cc1` [Thiobencarb, S-4-chlorobenzyl diethyl(thiocarbamate)] here?
Its inhibition at 296.3 g/ha is 0%.

What about the inhibition at 444.4 g/ha ([8]; 444.4 g/ha) of the same molecule?
The inhibition at 444.4 g/ha was 0%.

And the inhibition at 666.7 g/ha ([8]; 666.7 g/ha)?
Its inhibition at 666.7 g/ha is 0%.

And the inhibition at 296.3 g/ha ([9]; 296.3 g/ha)?
Its inhibition at 296.3 g/ha is 25%.

What about the inhibition at 444.4 g/ha ([9]; 444.4 g/ha) of the same molecule?
The inhibition at 444.4 g/ha was 23%.

And the inhibition at 666.7 g/ha ([9]; 666.7 g/ha)?
Its inhibition at 666.7 g/ha is 20%.
